The source of these data is BindingDB's records for doi:10.1021/jm00116a003 (Virginia Commonwealth University, 1992).

The first experiment in a line: The compound was tested for its binding affinity towards sigma receptor in guinea pig brain membranes.
As to `O=C(c1ccccc1)N1CCNCC1`, the affinity corresponds to a Ki of 11400 nM. Still for that read-out and setting: as for `COc1ccccc1C1(O)CCNCC1`, the figure is 14300 nM; as for `Clc1cccc(N2CCN(CCc3ccccc3)CC2)c1`, 11 nM. In turn, `c1ccc(CCCN2CCN(c3ccc4ccccc4c3)CC2)cc1` yielded a Ki of 2.8 nM. Compared with the last compound, the Ki is about 3.9-fold lower. Take `Clc1ccc(N2CCN(CCCc3ccccc3)CC2)cc1`: the Ki came out at 2.9 nM. With `c1ccc(CCCCN2CCN(c3ccccc3)CC2)cc1`, the Ki worked out at 2.6 nM. `FC(F)(F)c1cccc(N2CCN(CCCCc3ccccc3)CC2)c1` gave a Ki of 5.4 nM.

Test in another experiment: as above
The source holds these as a separate data set.
`Clc1ccc(C2=CCN(CCCCc3ccccc3)CC2)cc1` displayed a Ki of 4.1 nM.

As a reminder, the Ki is the equilibrium dissociation constant of an inhibitor or competing ligand from its target. Read a low Ki as higher affinity.
